Results published in patent US10765706B2, “Method of stem cell delivery into the brain during chronic disease using blood brain barrier permeabilizers” (University of South Florida, priority 2015, dated 2020).

What was measured:
Assay type in all cases: in vivo, Sprague-Dawley rats
[1] = test system: middle cerebral artery occlusion (MCAO) stroke rats; assay: Neurogenesis, chronic stroke, FIG. 7; settings: treatment 1 month after MCAO
Description: (§1) Adult Sprague-Dawley rats initially received sham surgery or experimental stroke via the one-hour middle cerebral artery occlusion (MCAO) model, as disclosed in Example 2. At 1 month after the MCAO surgery, stroke animals were randomly assigned to receive human umbilical cord stem cells only (2 million viable cells), mannitol only (1.1 mol/L mannitol at 4° C.), combined human umbilical cord stem cells (200,000 viable cells) and mannitol (1.1 mol/L mannitol at 4° C.), and vehicle (phosphate buffered saline, PBS) only.
(§2) The hUCBC (Saneron CCEL Therapeutics, Inc., Tampa, Fla.) were thawed at 37° C. Cells were washed and centrifuged three times (1000 rpm for 7 minutes). Viability was determined using the trypan blue dye exclusion method and cell concentration was adjusted to 10,000 cells/μl. A minimum of 85% viability post-thaw was required for a sample to be used for transplantation. For hUCBC+BBB, 200,000 hUCB cells were suspended in 10 μl PBS in a 28-gauge Hamilton syringe. For hUCBC only, 2×10^6 cells were suspended in […] PBS. The BBB only treatment was injected as prepared. Treatments were administered by intra-arterial injection into the internal carotid artery where the embolic filament was previously inserted. Infusion rate was 1 μl per minute as determined by using a micro-infusion pump.

[2] = test system: middle cerebral artery occlusion (MCAO) stroke rats; assay: Motor asymmetry, chronic stroke (treatment 1 month after MCAO), FIG. 1; settings: intra-arterial, hUCBC only 2 million cells, combination 200,000 cells + 1.1 mol/L mannitol
Description: as §1, §2

[3] = test system: middle cerebral artery occlusion (MCAO) stroke rats; assay: Histological analysis of brain cell survival, chronic stroke, FIG. 2; settings: treatment 1 month after MCAO
Description: The hUCBC (Saneron CCEL Therapeutics, Inc., Tampa, Fla.) were thawed at 37° C. Cells were washed and centrifuged three times (1000 rpm for 7 minutes). Viability was determined using the trypan blue dye exclusion method and cell concentration was adjusted to 10,000 cells/μl. A minimum of 85% viability post-thaw was required for a sample to be used for transplantation. For hUCBC+BBB, 200,000 hUCB cells were suspended in 10 μl PBS in a 28-gauge Hamilton syringe. For hUCBC only, 2×10^6 cells were suspended in XX μl PBS. The BBB only treatment was injected as prepared. Treatments were administered by intra-arterial injection into the internal carotid artery where the embolic filament was previously inserted. Infusion rate was 1 μl per minute as determined by using a micro-infusion pump.

OC[C@@H](O)[C@@H](O)[C@H](O)[C@H](O)CO [mannitol]
neurogenesis, increase above sham-operated rats [1]: without concomitant neurogenesis | motor asymmetry [2]: lowered the motor asymmetry slightly | cell survival (brain damage, peri-infarct area) [3]: significant brain damage
